From the supplement of paper PMC5412046 come the findings set out here.

Test [1] deals with SB.mhdgc-1. The test is described as follows: area under the dose-response curve of % viability (trapezoidal, 11 doses) (% viability x log10 concentration); higher = less cytotoxic. The settings on record: SB.mhdgc-1 (hereditary c.1380delA CDH1 gastric cancer). In outline: (§1)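 Reported here is DMSO-normalised viability, either at the highest concentration or as a trapezoidal area under the curve. Hereditary or sporadic patient-derived gastric cancer cells received compound by pintool at 11 threefold-diluted concentrations and were read with CellTiter-Glo after 48 h.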

Test [2] relates to SB.msgc-1. The test is described as above. The settings on record: SB.msgc-1 (sporadic gastric cancer). The procedure, abridged:
as §1

Test [3] concerns SB.mhdgc-1. Kind of test: viability at highest tested concentration (MAXR) relative to DMSO; higher = less cytotoxic. The settings on record: SB.mhdgc-1 (hereditary c.1380delA CDH1 gastric cancer). The procedure, abridged: as §1
The test system of test [4] is SB.msgc-1. Described as above. The following applies: SB.msgc-1 (sporadic gastric cancer). The procedure, abridged:
as §1

In general, viability refers to a read-out of living cells in per cent, often relative to untreated cells. For `COc1ccccc1[C@H](c1cccc2ccccc12)[C@@](C)(C#N)C(=O)N1CCC(c2cccc(C(F)(F)F)c2)CC1` (top concentration 46.0829 µM), the “area under the dose-response curve” value in test [1] came to 445; in test [2], 479. Also, the figures for the viability in test [3] and in test [4] were 25.3% and 75.2%, respectively.
With `COc1cc2ncnc(-n3nc(-c4ccccn4)nc3N)c2cc1OC` (top concentration 46.0829 µM), the “area under the dose-response curve” value in test [1] was found to be 414; in test [2], 451. Besides, the viability in test [3] worked out at 2.27%; in test [4], 17.2%.
In the same order, the values of `COc1cc2nc(-c3ccc(N4CCN(C)CC4)cc3)nc(NCCN3CCOCC3)c2cc1OC` (top concentration 46.0829 µM) are 397, 320, 1.59% and 2.22%.
In the same order, the values of `COc1cc(Cl)cn2c(-c3cccc(NC4CNC4)n3)cnc12` (top concentration 46.0829 µM) are 427, 536, 40.6% and 51.3%.
For the compound `COc1ccc(COc2cc3oc(=O)c4cc(C(C)O)ccc4c3cc2OC)cc1` (stereo unspecified) (top concentration 46.0829 µM), the “area under the dose-response curve” value in test [1] was 486; in test [2], 507. Moreover, the viability stood at 39.9% in test [3] and 36.2% in test [4].
The like results for `COc1ccc2c(c1)CC[C@@H](CN(C)CC(=O)O)[C@H]2c1ccccc1` (top concentration 46.0829 µM) were, in that order, 459, 474, 55.3% and 33.9%.
On to `COCC(=O)NC/C=C/c1ccc2ncnc(Nc3ccc(Oc4ccc(C)nc4)c(C)c3)c2c1` (top concentration 46.0829 µM), for which the “area under the dose-response curve” value was 484 in test [1] and 345 in test [2]. Besides, the viability is 59.7% in test [3] and 33.4% in test [4].
The like results for `C[C@@H](Oc1cc(-n2cnc3ccc(CN4CCN(C)CC4)cc32)sc1C(N)=O)c1ccccc1C(F)(F)F` (top concentration 46.0829 µM) were, in that order, 287, 374, 6.24% and 56.5%.
The like results for `C[C@H](NC(=O)Cc1cc(F)cc(F)c1)C(=O)N[C@@H]1C(=O)N(C)c2ccccc2-c2ccccc21` (top concentration 46.0829 µM) were, in that order, 423, 491, 32.4% and 38.9%.
In the same order, the values of `C[N]1C=C(C=N1)C2=C3\C=N/NC(=O)C4=C3C(=CC(=C4)NC(=O)[C@H](N)C5CCCCC5)[NH]2` (top concentration 46.0829 µM) are 381, 444, 27.3% and 46.3%.
As to `CN(C(=O)c1ccc(F)cc1C(F)(F)F)C1CCN(c2nnc(-c3ccnn3C)c3ccccc23)CC1` (top concentration 46.0829 µM), the figures for the “area under the dose-response curve” value in test [1] and in test [2] were 368 and 399, respectively. Besides, the figures for the viability in test [3] and in test [4] were 51.3% and 59.5%, respectively.
Turning to `C[S+](=O)([O-])c1cccc(CNc2nc(Nc3ccc4c(c3)CCC(=O)N4)ncc2C(F)(F)F)c1` (top concentration 46.0829 µM), the “area under the dose-response curve” value was 462 in test [1] and 547 in test [2]. For the same compound, the viability in test [3] amounted to 58.8%; in test [4] it was 57.3%.
As to `NC1=C(Cl)C(=CC=N1)OC2=C(F)C=C(NC(=O)\C3=C\N\C=C(C3=O)\C4=CC=C(F)C=C4)C=C2` (top concentration 46.0829 µM), the “area under the dose-response curve” value was found to be 413 in test [1] and 497 in test [2]. Also, the viability in test [3] is 62.3%; in test [4], 41.1%.
In the same order, the values of `Nc1nc(Nc2ccc([S+](N)(=O)[O-])cc2)nn1C(=O)c1c(F)cccc1F` (top concentration 46.0829 µM) are 459, 433, 63.7% and 49.1%.
The like results for `N#Cc1ccc(COC[C@H]2O[C@@H](n3c(NCc4ccc(Cl)c(Cl)c4)nc4c(N)ncnc43)[C@H](O)[C@@H]2O)cc1` (top concentration 46.0829 µM) were, in that order, 520, 466, 42.4% and 48%.
On to `O=C1\C=C(/OC2=C1C=CC=C2C3=CC=CC=C3)N4CCOCC4` (top concentration 46.0829 µM), for which the “area under the dose-response curve” value came out at 436 in test [1] and 461 in test [2]. Moreover, the viability in test [3] is 37.1%; in test [4], 42.6%.
In the same order, the values of `O=[S+]([O-])(/N=C/c1c(O)ccc2ccccc12)c1cccs1` (top concentration 46.0829 µM) are 405, 453, 105% and 52.8%.
In the same order, the values of `OCCn1cc(-c2ccc3c(c2)CC/C3=N\O)c(-c2ccncc2)n1` (top concentration 46.0829 µM) are 542, 565, 116% and 91.9%.
Turning to `OCCn1cc(-c2cnc3nnn(Cc4ccc5ncccc5c4)c3n2)cn1` (top concentration 46.0829 µM), the “area under the dose-response curve” value is 588 in test [1] and 515 in test [2]. For the same compound, the values for the viability in test [3] and in test [4] were 55.1% and 93.7%, respectively.
